Data set [1] relates to SARS-CoV-2. The experiment in a line: microbe, parasite or virus in culture. In kind it is functional, organism-based, Chlorocebus sabaeus. The conditions noted are these: Severe acute respiratory syndrome coronavirus 2, Vero, 24 h.
Data set [2] can be described thus: Cell viability measured by CellTiter-Glo assay in Vero cells at MOI 0.05 after 72hr. The conditions noted are these: chlorocebus sabaeus, Vero cells. A general note: Cellular ATP, detected with luciferase, serves as a proxy for viable cell number.
A short description of data set [3]: Selectivity index for antiviral vs cytotoxic activity in Vero cells (CC50/IC50). Conditions: monkey.

The results in this text go back to ChEMBL document CHEMBL4303084, “Identification of antiviral drug candidates against SARS-CoV-2 from FDA-approved drugs” (2020).

By IC50 is commonly meant the concentration that inhibits the measured activity by half. Low readings indicate greater potency, high ones weaker potency. In general, CC50 refers to the concentration that lowers cell viability or growth by half. In the case of `CCN(CC)CCOc1ccc(C(=C(Cl)c2ccccc2)c2ccccc2)cc1` [CLOMIPHENE], the 50% inhibitory concentration (IC50) in data set [1] worked out at 5.36 µM. In data set [2], this compound showed a half-maximal cytotoxic concentration (CC50) at 72 h of 15 µM. For the same compound, the selectivity ratio in data set [3] (Vero cells) came out at 2.8.

Take `C[C@H]1O[C@@H](O[C@H]2[C@@H](O)C[C@H](O[C@H]3[C@@H](O)C[C@H](O[C@H]4CC[C@@]5(C)[C@H](CC[C@@H]6[C@@H]5CC[C@]5(C)[C@@H](C7=CC(=O)OC7)CC[C@]65O)C4)O[C@@H]3C)O[C@@H]2C)C[C@H](O)[C@@H]1O` [DIGITOXIN]: the IC50 in data set [1] was less than 0.23 µM. In addition, in data set [2], the half-maximal cytotoxic concentration (CC50) at 72 h is greater than 50 µM. The selectivity ratio in data set [3] (Vero cells) was 214.

With `C[C@H]1O[C@@H](O[C@H]2[C@@H](O)C[C@H](O[C@H]3[C@@H](O)C[C@H](O[C@H]4CC[C@@]5(C)[C@H](CC[C@@H]6[C@@H]5C[C@@H](O)[C@]5(C)[C@@H](C7=CC(=O)OC7)CC[C@]65O)C4)O[C@@H]3C)O[C@@H]2C)C[C@H](O)[C@@H]1O` [DIGOXIN], half-maximal inhibition in data set [1] (IC50) required 0.19 µM. The same compound gave a cytotoxic concentration (CC50) at 72 h in data set [2] greater than 50 µM. For the same compound, in data set [3] (Vero cells), the selectivity ratio stood at 257.

For `CC(C)=CCCC1(C)C=Cc2c(O)c3c(c(CC=C(C)C)c2O1)OC12C(=CC4CC1C(C)(C)OC2(C/C=C(/C)C(=O)O)C4O)C3=O` (stereo unspecified) [DIHYDROGAMBOGIC ACID], in data set [1], the midpoint of inhibition, the IC50, lay at 13.4 µM. In data set [2], this compound displayed a CC50 at 72 h of 9.85 µM. The selectivity ratio in data set [3] (Vero cells) turned out to be 0.74.

Consider `CC/C(=C(/c1ccc(OCCN(C)C)cc1)c1cccc(O)c1)c1ccccc1` [DROLOXIFENE], for which the IC50 in data set [1] worked out at 6.6 µM. The same compound had a CC50 at 72 h in data set [2] of 15.8 µM. Also, the selectivity ratio in data set [3] (Vero cells) came out at 2.4.

In data set [1], `CCCCc1oc2ccc(NS(C)(=O)=O)cc2c1C(=O)c1ccc(OCCCN(CCCC)CCCC)cc1` [DRONEDARONE] showed an IC50 of 3.92 µM. This compound returned a CC50 at 72 h in data set [2] of 8.75 µM. The selectivity ratio in data set [3] (Vero cells) is 2.23.

The compound `COc1ccc2cc1Oc1ccc(cc1)C[C@H]1c3cc(c(OC)cc3CCN1C)Oc1c(OC)c(OC)cc3c1[C@H](C2)N(C)CC3` [FANCHININ] showed an IC50 in data set [1] of 3 µM. Moreover, the CC50 at 72 h in data set [2] came to 14.9 µM. Moreover, the selectivity ratio in data set [3] (Vero cells) worked out at 4.97.

`CCc1nc(C(N)=O)c(Nc2ccc(N3CCC(N4CCN(C)CC4)CC3)c(OC)c2)nc1NC1CCOCC1` [GILTERITINIB] yielded an IC50 in data set [1] of 6.76 µM. Moreover, in data set [2], the CC50 at 72 h amounted to 37.2 µM. Besides, the selectivity ratio in data set [3] (Vero cells) stood at 5.5.

Consider `Oc1c(Cl)cc(Cl)c(Cl)c1Cc1c(O)c(Cl)cc(Cl)c1Cl` [HEXACHLOROPHENE], for which, in data set [1], half-maximal inhibition (IC50) was put at 0.9 µM. Besides, the CC50 at 72 h in data set [2] is 19.3 µM. Besides, in data set [3] (Vero cells), the selectivity ratio is 21.6.

In data set [1], `CCCCCC(=O)O[C@]1(C(C)=O)CC[C@H]2[C@@H]3CCC4=CC(=O)CC[C@]4(C)[C@H]3CC[C@@]21C` [HYDROXYPROGESTERONE CAPROATE] came in with a half-maximal inhibitory concentration (IC50) of 6.3 µM. In data set [2], this compound returned a CC50 at 72 h greater than 50 µM. Further, in data set [3] (Vero cells), the selectivity ratio was 7.93.

`CC(C)(C)c1cc(C(C)(C)C)c(NC(=O)c2c[nH]c3ccccc3c2=O)cc1O` [IVACAFTOR] came in with a half-inhibitory concentration (IC50) in data set [1] of 6.57 µM. The compound further showed a CC50 at 72 h in data set [2] of 27.3 µM. Besides, the selectivity ratio in data set [3] (Vero cells) came to 3.76.

For the compound `CC(=O)O[C@H]1C[C@H](O[C@H]2[C@@H](O)C[C@H](O[C@H]3[C@@H](O)C[C@H](O[C@H]4CC[C@@]5(C)[C@H](CC[C@@H]6[C@@H]5C[C@@H](O)[C@]5(C)[C@@H](C7=CC(=O)OC7)CC[C@]65O)C4)O[C@@H]3C)O[C@@H]2C)O[C@H](C)[C@H]1O[C@@H]1O[C@H](CO)[C@@H](O)[C@H](O)[C@H]1O` [LANATOSIDE C], the IC50 in data set [1] was greater than 50 µM. This compound also displayed a CC50 at 72 h in data set [2] greater than 50 µM. Moreover, the selectivity ratio in data set [3] (Vero cells) came out at 1.

Turning to `CCCCCCO[C@@H](C)c1cccc(-c2csc(NC(=O)c3cc(Cl)c(/C=C(\C)C(=O)O)c(Cl)c3)n2)c1OC` [LUSUTROMBOPAG], in data set [1], the IC50 was 3.78 µM. Moreover, half-maximal cytotoxicity in data set [2] (CC50 at 72 h) was put at 14.6 µM. Moreover, in data set [3] (Vero cells), the selectivity ratio came out at 3.87.

`OC(c1cc(C(F)(F)F)nc2c(C(F)(F)F)cccc12)C1CCCCN1` (stereo unspecified) [MEFLOQUINE] returned an IC50 in data set [1] of 4.33 µM. In data set [2], this compound registered a cytotoxic concentration (CC50) at 72 h of 14 µM. Further, the selectivity ratio in data set [3] (Vero cells) was found to be 3.22.

`c1ccc2c(c1)Sc1ccccc1N2CC1CN2CCC1CC2` (stereo unspecified) [MEQUITAZINE]: in data set [1], half-maximal inhibition (IC50) was put at 7.28 µM. Also, in data set [2], it took 27.3 µM to reach half-maximal cytotoxicity (CC50 at 72 h). In addition, the selectivity ratio in data set [3] (Vero cells) stood at 3.76.

`CC(C)=CCc1c2c(c3occ(-c4ccc(O)cc4)c(=O)c3c1O)C=CC(C)(C)O2` [OSAJIN]: the IC50 in data set [1] turned out to be 3.87 µM. This compound also returned a CC50 at 72 h in data set [2] of 11.4 µM. Further, the selectivity ratio in data set [3] (Vero cells) is 2.95.

As for `C=CC(=O)Nc1cc(Nc2nccc(-c3cn(C)c4ccccc34)n2)c(OC)cc1N(C)CCN(C)C` [OSIMERTINIB], inhibition in data set [1] was half-maximal at 3.26 µM (IC50). Also, the CC50 at 72 h in data set [2] was determined as 13.2 µM. Besides, the selectivity ratio in data set [3] (Vero cells) came to 4.05.

Compound `C[C@@H]1O[C@@H](O[C@H]2C[C@@H](O)[C@]3(CO)[C@H]4[C@H](O)C[C@]5(C)[C@@H](C6=CC(=O)OC6)CC[C@]5(O)[C@@H]4CC[C@]3(O)C2)[C@H](O)[C@H](O)[C@H]1O` [OUABAIN OCTAHYDRATE] registered an IC50 in data set [1] of less than 0.097 µM. The CC50 at 72 h in data set [2] is greater than 50 µM. In addition, the selectivity ratio in data set [3] (Vero cells) stood at 516.

In the case of `OC1(c2ccc(Cl)c(C(F)(F)F)c2)CCN(CCCC(c2ccc(F)cc2)c2ccc(F)cc2)CC1` [PENFLURIDOL], in data set [1], half-maximal inhibition (IC50) was put at 5.01 µM. The CC50 at 72 h in data set [2] amounted to 8.77 µM. Further, in data set [3] (Vero cells), the selectivity ratio was 1.75.

In the case of `C1CCC(C(CC2CCCCN2)C2CCCCC2)CC1` (stereo unspecified) [PERHEXILINE], inhibition in data set [1] was half-maximal at 6.38 µM (IC50). For the same compound, in data set [2], it took 8.67 µM to reach half-maximal cytotoxicity (CC50 at 72 h). Besides, in data set [3] (Vero cells), the selectivity ratio was found to be 1.36.

`C[C@@H]1O[C@@H](O[C@@H]2C=C3CC[C@@H]4[C@H](CC[C@]5(C)[C@@H](c6ccc(=O)oc6)CC[C@]45O)[C@@]3(C)CC2)[C@H](O)[C@H](O)[C@H]1O` [PROSCILLARIDIN] had an IC50 in data set [1] of 2.04 µM. Further, the CC50 at 72 h in data set [2] is greater than 50 µM. Further, the selectivity ratio in data set [3] (Vero cells) was determined as 24.5.

Compound `CCN(CC)CCCC(C)Nc1c2ccc(Cl)cc2nc2ccc(OC)cc12` (stereo unspecified) [QUINACRINE] had an IC50 in data set [1] greater than 50 µM. In addition, the CC50 at 72 h in data set [2] was 14.7 µM. For the same compound, in data set [3] (vero), the selectivity ratio came to 0.29.

With `CC[C@@H](C(=O)[C@@H](C)[C@@H](O)[C@H](C)[C@@H]1O[C@@H]([C@@H](CC)C(=O)O)CC[C@@H]1C)[C@H]1O[C@]2(C=C[C@@H](O)[C@]3(CC[C@@](C)([C@H]4CC[C@](O)(CC)[C@H](C)O4)O3)O2)[C@H](C)C[C@@H]1C` [SALINOMYCIN], the midpoint of inhibition in data set [1], the IC50, lay at 0.24 µM. Also, the 50% cytotoxic concentration (CC50) at 72 h in data set [2] is greater than 50 µM. Besides, in data set [3] (Vero cells), the selectivity ratio is 211.

With `CSc1ccc2c(c1)N(CCC1CCCCN1C)c1ccccc1S2` (stereo unspecified) [THIORIDAZINE], in data set [1], the IC50 amounted to 6.69 µM. In addition, in data set [2], the CC50 at 72 h was found to be 16 µM. Moreover, in data set [3] (Vero cells), the selectivity ratio came to 2.39.

For the compound `CCN(CC)CCOc1ccc2c(c1)C(=O)c1cc(OCCN(CC)CC)ccc1-2` [TILORONE], inhibition in data set [1] was half-maximal at 4.09 µM (IC50). Besides, the midpoint of cytotoxicity in data set [2], the CC50 at 72 h, lay at 19.7 µM. The selectivity ratio in data set [3] (Vero cells) was 4.81.

`CN(C)CCOc1ccc(/C(=C(/CCCl)c2ccccc2)c2ccccc2)cc1` [TOREMIFENE]: in data set [1], inhibition was half-maximal at 3.58 µM (IC50). The compound further had a half-maximal cytotoxic concentration (CC50) at 72 h in data set [2] of 10.1 µM. Besides, in data set [3] (Vero cells), the selectivity ratio is 2.82.

Compound `CCN(CC)CCOc1ccc(C(O)(Cc2ccc(Cl)cc2)c2ccc(C)cc2)cc1` (stereo unspecified) [TRIPARANOL] yielded an IC50 in data set [1] of 7.05 µM. The CC50 at 72 h in data set [2] turned out to be 14.7 µM. Besides, in data set [3] (Vero cells), the selectivity ratio was 2.09.
